Values quoted from earlier work in patent publication US20260284189A1, “TREATMENT OF NON-SMALL CELL LUNG CANCER” (ASTRAZENECA AB, priority 2023, published 2026).

How the values were obtained:
[1] = tested on: PD-L1-mediated suppression of human T-cell activation; settings: in vitro; cited from earlier work
xenograft model = settings: via a T-cell dependent mechanism; cited from earlier work

Durvalumab: antibody that selectively binds PD-L1 and blocks binding of PD-L1 to PD-1 and CD80; arm given with platinum-based chemotherapy before surgery
PD-L1-mediated suppression of human T-cell activation [1]: can relieve PD-L1-mediated suppression of human T-cell activation in vitro | tumor growth in a xenograft model (xenograft model): inhibits tumor growth in a xenograft model
